Patent publication US8959984B2, “Proteome-wide quantification of small molecule binding to cellular target proteins” (priority 2007, dated 2015)
Read-outs that look alike come from different tables or passages of the source.

What was measured:
JNK2, RIPK2, ERK2, ROCK2 = assay: immunoblot of IVA1/IVA2 eluates from V16742 matrix, HeLa lysate; type: binding, human
Protocol: The proteins retained on the beads were immunoblotted with specific antibodies for JNK2, RIPK2, ERK2 and ROCK2, the targets with affinities ranging from high to very low as identified/predicted by mass spectrometry.
Immunoblotting of affinity chromatography eluates from either IVA1 or IVA2 setting was performed with the following antibodies: Rabbit anti-casein kinase Iα, Rabbit anti-JNK2, Rabbit anti-ROCK-II (all from Cell Signaling Technology, Inc.), anti-GSK3β, anti-RIPK2, anti-GAK, anti-ERK2 (Santa Cruz)

CDK7 = target: T1, CDK7 (Homo sapiens, UniProt P50613); assay: binding to immobilized V16742 (IVA1/IVA2, HeLa lysate, MS)
T1 construct: endogenous in cells; host or cells: HeLa S3

PHKg2 = target: T2, PHKg2 (Homo sapiens, UniProt P15735); assay: as above
T2 construct: endogenous in cells; host or cells: HeLa S3
T2 sequence (P15735 1-406): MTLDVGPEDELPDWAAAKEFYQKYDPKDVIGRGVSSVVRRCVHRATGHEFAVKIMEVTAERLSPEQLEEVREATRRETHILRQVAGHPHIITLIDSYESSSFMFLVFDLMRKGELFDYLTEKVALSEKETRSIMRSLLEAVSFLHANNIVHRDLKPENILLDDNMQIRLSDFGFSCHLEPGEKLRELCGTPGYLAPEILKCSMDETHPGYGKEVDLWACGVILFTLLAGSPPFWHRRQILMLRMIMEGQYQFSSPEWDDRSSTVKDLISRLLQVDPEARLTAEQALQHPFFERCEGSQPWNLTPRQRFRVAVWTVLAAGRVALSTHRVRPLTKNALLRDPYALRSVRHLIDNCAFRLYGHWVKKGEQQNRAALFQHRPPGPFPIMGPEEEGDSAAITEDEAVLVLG

[1] = target: T3, MST3 (STK24, IPI00872754) (Homo sapiens, UniProt Q9Y6E0); assay: binding to VI16742 beads (HeLa lysate, SILAC MS)
T3 construct: endogenous in cells; host or cells: HeLa S3 cell lysate

EphB2 = target: T4, EphB2 (Homo sapiens, UniProt P29323); assay: binding to immobilized V16742 (IVA1/IVA2, HeLa lysate, MS)
T4 sequence (P29323 19-1055): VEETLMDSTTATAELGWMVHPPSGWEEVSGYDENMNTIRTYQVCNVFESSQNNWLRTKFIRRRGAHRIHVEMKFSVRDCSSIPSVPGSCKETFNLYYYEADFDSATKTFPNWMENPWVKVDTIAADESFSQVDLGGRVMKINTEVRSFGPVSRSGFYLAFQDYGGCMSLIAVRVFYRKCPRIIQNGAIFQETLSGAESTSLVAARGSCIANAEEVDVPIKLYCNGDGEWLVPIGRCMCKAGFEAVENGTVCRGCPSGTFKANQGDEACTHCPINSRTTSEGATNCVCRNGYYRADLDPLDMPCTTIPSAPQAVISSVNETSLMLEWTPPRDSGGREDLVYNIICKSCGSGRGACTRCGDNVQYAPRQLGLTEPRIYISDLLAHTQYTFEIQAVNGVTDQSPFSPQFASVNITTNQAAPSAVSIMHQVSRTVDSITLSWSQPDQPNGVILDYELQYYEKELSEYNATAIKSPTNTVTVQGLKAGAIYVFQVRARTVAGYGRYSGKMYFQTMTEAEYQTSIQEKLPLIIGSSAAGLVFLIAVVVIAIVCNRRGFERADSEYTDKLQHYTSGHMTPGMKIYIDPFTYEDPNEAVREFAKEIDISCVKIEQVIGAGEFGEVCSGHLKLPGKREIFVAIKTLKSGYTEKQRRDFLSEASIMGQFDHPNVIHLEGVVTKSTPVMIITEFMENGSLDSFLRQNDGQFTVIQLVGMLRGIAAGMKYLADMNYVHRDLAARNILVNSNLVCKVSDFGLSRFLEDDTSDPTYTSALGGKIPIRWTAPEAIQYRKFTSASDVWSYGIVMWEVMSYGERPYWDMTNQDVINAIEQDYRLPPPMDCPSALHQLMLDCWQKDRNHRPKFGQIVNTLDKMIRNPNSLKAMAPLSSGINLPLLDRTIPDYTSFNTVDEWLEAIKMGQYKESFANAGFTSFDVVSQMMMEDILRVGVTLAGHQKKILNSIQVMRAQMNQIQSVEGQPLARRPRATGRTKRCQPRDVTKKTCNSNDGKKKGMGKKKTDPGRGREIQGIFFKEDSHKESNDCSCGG

T1 sequence (P50613 whole entry): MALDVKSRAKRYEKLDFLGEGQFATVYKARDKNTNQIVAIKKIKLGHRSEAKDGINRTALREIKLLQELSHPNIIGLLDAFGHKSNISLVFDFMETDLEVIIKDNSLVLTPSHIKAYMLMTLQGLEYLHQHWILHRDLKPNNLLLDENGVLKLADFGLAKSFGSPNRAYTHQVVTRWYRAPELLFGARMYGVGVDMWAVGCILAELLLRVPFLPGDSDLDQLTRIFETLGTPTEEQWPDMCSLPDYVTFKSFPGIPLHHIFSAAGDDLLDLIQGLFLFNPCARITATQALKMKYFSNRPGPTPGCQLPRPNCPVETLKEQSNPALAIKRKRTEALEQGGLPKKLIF
T3 sequence (Q9Y6E0 whole entry): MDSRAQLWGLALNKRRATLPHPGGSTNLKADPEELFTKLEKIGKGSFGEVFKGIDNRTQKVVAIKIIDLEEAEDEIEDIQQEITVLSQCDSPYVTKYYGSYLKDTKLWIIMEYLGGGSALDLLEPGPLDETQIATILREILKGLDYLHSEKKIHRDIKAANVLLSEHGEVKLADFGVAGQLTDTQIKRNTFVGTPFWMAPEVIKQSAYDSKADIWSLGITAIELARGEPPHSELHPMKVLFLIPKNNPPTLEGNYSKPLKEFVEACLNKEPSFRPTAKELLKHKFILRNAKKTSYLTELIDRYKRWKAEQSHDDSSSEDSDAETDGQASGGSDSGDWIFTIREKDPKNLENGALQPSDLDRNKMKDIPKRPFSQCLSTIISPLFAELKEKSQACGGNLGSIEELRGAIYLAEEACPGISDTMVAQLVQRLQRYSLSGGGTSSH

Compound: CC(C)n1c(=O)ccc2cnc(Nc3ccc(OCCN)cc3)nc21 [V16742]
- interaction of kinases with V16742 matrix, immunoblot (JNK2, RIPK2, ERK2, ROCK2): specifically interacted with the V16742 matrix
- Percent bound at various 16742 conc (CDK7; Experiment 1, 1.87 μM 16742): 5.76%
- Percent bound at various 16742 conc (CDK7; Experiment 1, 8.74 μM 16742): 22.04%
- Percent bound at various 16742 conc (CDK7; Experiment 1, 52 μM 16742): 53.96%
- Kd (CDK7; Experiment 1, read-out: Kd): 39.8 µM
- Percent bound at various 16742 conc (CDK7; Experiment 2, 1.87 μM 16742): 2.34%
- Percent bound at various 16742 conc (CDK7; Experiment 2, 8.74 μM 16742): 13.18%
- Percent bound at various 16742 conc (CDK7; Experiment 2, 52 μM 16742): 45.57%
- Kd (CDK7; Experiment 2, read-out: Kd): 61.5 µM
- Kd (CDK7; average of two experiments, read-out: Kd Avg): 50.7 µM
- Percent bound at various 16742 conc (PHKg2; Experiment 1, 52 μM 16742): 59.42%
- Kd (PHKg2; Experiment 2): 146 µM
- Percent bound at various 16742 conc (PHKg2; Experiment 2, 1.87 μM 16742): 1.94%
- Percent bound at various 16742 conc (PHKg2; Experiment 2, 8.74 μM 16742): 2.29%
- Percent bound at various 16742 conc (PHKg2; Experiment 2, 52 μM 16742): 27.11%
- r (5 h/2.5 h INC. TIME) ([1]; 5 h vs 2.5 h incubation time): 1.41
- rAVERAGE (CTRL/1 INC) ([1]; control beads vs first incubation): 0.06
- Ki ([1]; immobilized VI16742): 89.8 µM
- rAVERAGE (2 INC/1 INC) ([1]; second vs first incubation): 0.63

Compound: CC(C)n1c(=O)ccc2cnc(Nc3ccc(OCCN)cc3)nc21 [compound 16742]
- Percent bound at 1.87 μM 16742 conc (EphB2; EXPERIMENT 1): 4.79%
- Percent bound at 8.74 μM 16742 conc (EphB2; EXPERIMENT 1): 17.01%
- Percent bound at 52 μM 16742 conc (EphB2; EXPERIMENT 1): 66.97%
- Kd (EphB2; EXPERIMENT 1, read-out: Kd): 30.6 µM
- Percent bound at 1.87 μM 16742 conc (EphB2; EXPERIMENT 2): 2.86%
- Percent bound at 8.74 μM 16742 conc (EphB2; EXPERIMENT 2): 13.05%
- Percent bound at 52 μM 16742 conc (EphB2; EXPERIMENT 2): 57.74%
- Kd (EphB2; EXPERIMENT 2, read-out: Kd): 42.3 µM
- Kd (EphB2; read-out: Kd Avg): 36.5 µM
